From patent publication US10899790B2, “Method for modifying T cell population” (OSAKA UNIVERSITY, priority 2016, dated 2021)

How the values were obtained:
[1] = target: T1, Retinol Dehydrogenase 10 (RDH10) (Homo sapiens, UniProt Q8IZV5); experiment: Inhibition of RDH10 enzyme activity (microsomal fraction of RDH10-expressed 293T, all-trans retinol to all-trans retinal, HPLC); format: biochemical; conditions: final concentration of 20 μM; relative to DMSO control (FIG. 1)
T1 construct: expressed in transfected cells; host or cells: 293T (microsomal fraction)
T1 sequence (Q8IZV5 1-341): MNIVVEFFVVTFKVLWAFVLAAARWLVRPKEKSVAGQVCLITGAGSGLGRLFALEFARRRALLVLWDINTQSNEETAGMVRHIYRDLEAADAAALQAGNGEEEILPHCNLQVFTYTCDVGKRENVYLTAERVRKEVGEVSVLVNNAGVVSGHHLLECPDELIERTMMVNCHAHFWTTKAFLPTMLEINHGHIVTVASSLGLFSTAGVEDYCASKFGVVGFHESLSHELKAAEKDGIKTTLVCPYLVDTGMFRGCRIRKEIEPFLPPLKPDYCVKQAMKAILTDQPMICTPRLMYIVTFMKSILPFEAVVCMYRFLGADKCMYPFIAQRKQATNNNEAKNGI
Procedure: All-trans retinol, BSA, and NAD (nicotinamide adenine dinucleotide) as a coenzyme were added to a buffer for reaction (90 mM potassium phosphate buffer, pH7.4, 40 mM KCl) so as to have final concentrations of 10 μM, 10 μM, and 1 mM respectively. This mixture was taken in siliconized tubes by 200 μl for each, the microsomal fractions separated from 293T and RDH10-expressed 293T were added to separate tubes by 10 μl for each, and the mixtures were allowed to react at 37° C. for 15 minutes. After 200 μl of methanol was added to the reaction mixtures to stop the reaction, retinoid was extracted using hexane and concentrated. The concentrated retinoid was dissolved in 150 μl of acetonitrile, separated by HPLC, and subjected to the detection of ultraviolet light absorption at a wavelength of 350 nm, whereby the substrate (all-trans retinol) and the product (all-trans retinal) were detected. In addition, standard samples (all-trans retinol and all-trans retinal) were separated by HPLC and the retention times of the respective standard samples were determined in advance. The solvent for HPLC was acetonitrile: 50 mM ammonium acetate=75:25. As the separation column, Syhergi 4 μm Hydro-RP 80A (manufactured by Phenomenex) was used. In addition, the flow rate was 2.0 ml/min. The RDH10 enzyme activity was calculated by reading the amount of product per fixed time from the chart of HPLC.
All-trans retinol, BSA, and NAD (nicotinamide adenine dinucleotide) as a coenzyme were added to a buffer for reaction (90 mM potassium phosphate buffer, pH7.4, 40 mM KCl) so as to have final concentrations of 10 μM, 10 μM, and 1 mM respectively. This mixture was taken in siliconized tubes by 200 μl for each, the microsomal fraction separated from RDH10-expressed 293T was added to separate tubes by 10 μl for each. The RDH10 inhibitor dissolved in DMSO was added to each tube so as to have a final concentration of 20 μM, and the same amount of DMSO was added to the control tube. The mixture was allowed to react at 37° C. for 15 to 30 minutes, 200 μl of methanol was added to the reaction mixtures, and then retinoid was extracted using hexane and concentrated. The concentrated retinoid was dissolved in 150 μl of acetonitrile, separated by HPLC, and subjected to the detection of ultraviolet light absorption at a wavelength of 350 nm, whereby the substrate (all-trans retinol) and the product (all-trans retinal) were detected. In addition, standard samples (all-trans retinol and all-trans retinal) were separated by HPLC and the retention times of the respective standard samples were determined in advance. The solvent for HPLC was acetonitrile: 50 mM ammonium acetate=75:25. As the separation column, Syhergi 4 μm Hydro-RP 80A (manufactured by Phenomenex) was used. The flow rate was 2.0 ml/min.
The enzyme activity was determined by the waveform area of the product (all-trans retinal) with respective to the waveform area of the non-reacted substrate (all-trans retinol), and the relative value with respect to the enzyme activity in the control is illustrated in FIG. 1. The error bars indicate SD (standard deviation).

[2] = tested on: Healthy human-derived CD4+CD45RO+T cells; experiment: Effect in vitro: CD62L and CD127 expression in cultured T cells by flow cytometry; format: cell-based; conditions: 20 μM; anti-CD3, anti-CD28, IL-2; vs DMSO control (FIG. 2)
Procedure: Healthy human-derived CD4^+CD45RO^+T cells (1×10^5) were cultured in the presence of anti-CD3 antibody (2 μg/ml), anti-CD28 antibody (2 μg/ml), IL-2 (20 IU/ml) and RDH10 inhibitors (Compound No. 16 (RDHI-032), Compound No. 17 (RDHI-033), and Compound No. 18 (RDHI-034)) (20 μM for each). In addition, DMSO was used as a control for the RDH10 inhibitor. After seven days […] resuspended in a fresh culture medium to which IL-2 was not added, and cultured for one more day. Thereafter, the expression of CD62L and CD127 in T cells was analyzed by flow cytometry. The culture solution used was X-VIVO15 to which AB serum was added to have a final concentration of 10%.

SMILES | RDH10 enzyme activity inhibitory action [1] | amplification of memory T cells (CD62L+CD127+T cells) [2] | effector T cells (CD62L−CD127−T cells) [2]
COC(=O)[C@@]1(C)CC[C@]2(C)CC[C@]3(C)C(=CC(=O)[C@@H]4[C@@]5(C)CCC(NC(=O)N[C@@H](Cc6ccccc6)C(=O)O)C(C)(C)[C@@H]5CC[C@]43C)[C@H]2C1 (stereo partly drawn) [Compound No. 14, (2S)-2-(3-((4aR,6aR,6bS,8aS,11S,12aS,14aR,14bS)-11-(methoxycarbonyl)-4,4,6a,6b,8a,11,14b-heptamethyl-14-oxo-1,2,3,4,4a,5,6,6a,6b,7,8,8a,9,10,11,12,12a,14,14a,14b-icosahydropicen-3-yl)ureido)-3-phenyl propanoic acid] | relatively potent |  | 
COC(=O)[C@@]1(C)CC[C@]2(C)CC[C@]3(C)C(=CC(=O)[C@@H]4[C@@]5(C)CCC(NC(=O)N6CCOCC6)C(C)(C)[C@@H]5CC[C@]43C)[C@H]2C1 (stereo partly drawn) [Compound No. 22, (2S,4aS,6aS,6bR,8aR,12aS,12bR,14bS)-methyl 2,4a,6a,6b,9,9,12a-heptamethyl-10-(morpholine-4-carboxamido)-13-oxo-1,2,3,4,4a,5,6,6a,6b,7,8,8a,9,10,11,12,12a,12b,13,14b-icosahydropicene-2-carboxylate] | exhibited the RDH10 enzyme activity inhibitory action | tended to amplify memory cells | 
CC1(C)C(NC(=O)c2ccccc2)CC[C@]2(C)[C@H]3C(=O)C=C4[C@@H]5C[C@@](C)(C(N)=O)CC[C@]5(C)CC[C@@]4(C)[C@]3(C)CC[C@@H]12 (stereo partly drawn) [Compound No. 18, (2S,4aS,6aS,6bR,8aR,12aS,12bR,14bR)-10-benzamide-2,4a,6a,6b,9,9,12a-heptamethyl-13-oxo-1,2,3,4,4a,5,6,6a,6b,7,8,8a,9,10,11,12,12a,12b,13,14b-icosahydropicene-2-carboxamide] | relatively potent | amplified memory T cells | decreased
CC(=O)NC1CC[C@]2(C)[C@H]3C(=O)C=C4[C@@H]5C[C@@](C)(C(N)=O)CC[C@]5(C)CC[C@@]4(C)[C@]3(C)CC[C@H]2C1(C)C (stereo partly drawn) [Compound No. 17, (2S,4aS,6aS,6bR,8aR,12aS,12bR,14bR)-10-acetamido-2,4a,6a,6b,9,9,12a-heptamethyl-13-oxo-1,2,3,4,4a,5,6,6a,6b,7,8,8a,9,10,11,12,12a,12b,13,14b-icosahydropicene-2-carboxamide] | relatively potent | amplified memory T cells | decreased
COC(=O)c1ccccc1NC(=O)NC1CC[C@]2(C)[C@H]3C(=O)C=C4[C@H]5C[C@@](C)(C(=O)OC)CC[C@]5(C)CC[C@@]4(C)[C@]3(C)CC[C@H]2C1(C)C (stereo partly drawn) [Compound No. 9, (2S,4aS,6aS,6bR,8aR,12aS,12bR,14bS)-methyl 10-(3-(2-(methoxycarbonyl)phenyl)ureido)-2,4a,6a,6b,9,9,12a-heptamethyl-13-oxo-1,2,3,4,4a,5,6,6a,6b,7,8,8a,9,10,11,12,12a,12b,13,14b-icosahydropicene-2-carboxylate] | relatively potent |  | 
CC1(C)C(N)CC[C@]2(C)[C@H]3C(=O)C=C4[C@@H]5C[C@@](C)(C(N)=O)CC[C@]5(C)CC[C@@]4(C)[C@]3(C)CC[C@@H]12 (stereo partly drawn) [Compound No. 16, (2S,4aS,6aS,6bR,8aR,12aS,12bR,14bR)-10-amino-2,4a,6a,6b,9,9,12a-heptamethyl-13-oxo-1,2,3,4,4a,5,6,6a,6b,7,8,8a,9,10,11,12,12a,12b,13,14b-icosahydropicene-2-carboxamide] | relatively potent | amplified memory T cells | decreased
CCOC(=O)CNC(=O)NC1CC[C@]2(C)[C@H]3C(=O)C=C4[C@H]5C[C@@](C)(C(=O)OC)CC[C@]5(C)CC[C@@]4(C)[C@]3(C)CC[C@H]2C1(C)C (stereo partly drawn) [Compound No. 10, (2S,4aS,6aS,6bR,8aR,12aS,12bR,14bS)-methyl 10-(3-(2-ethoxy-2-oxoethyl)ureido)-2,4a,6a,6b,9,9,12a-heptamethyl-13-oxo-1,2,3,4,4a,5,6,6a,6b,7,8,8a,9,10,11,12,12a,12b,13,14b-icosahydropicene-2-carboxylate] | relatively potent |  | 
COC(=O)[C@@]1(C)CC[C@]2(C)CC[C@]3(C)C(=CC(=O)[C@@H]4[C@@]5(C)CCC(NC(=O)N6CCOCC6)C(C)(C)[C@@H]5CC[C@]43C)[C@@H]2C1 (stereo partly drawn) [Compound No. 23, (2S,4aS,6aS,6bR,8aR,12aS,12bR,14bR)-methyl 2,4a,6a,6b,9,9,12a-heptamethyl-10-(morpholine-4-carboxamido)-13-oxo-1,2,3,4,4a,5,6,6a,6b,7,8,8a,9,10,11,12,12a,12b,13,14b-icosahydropicene-2-carboxylate] | exhibited the RDH10 enzyme activity inhibitory action | tended to amplify memory cells | 
COC(=O)[C@@]1(C)CC[C@]2(C)CC[C@]3(C)C(=CC(=O)[C@@H]4[C@@]5(C)CCC(NC(=O)/C=C\C(=O)O)C(C)(C)[C@@H]5CC[C@]43C)[C@H]2C1 (stereo partly drawn) [Compound No. 5, (Z)-4-((4aR,6aR,6bS,8aS,11S,12aS,14aR,14bS)-11-(methoxycarbonyl)-4,4,6a,6b,8a,11,14b-heptamethyl-14-oxo-1,2,3,4,4a,5,6,6a,6b,7,8,8a,9,10,11,12,12a,14,14a,14b-icosahydropicen-3-ylamino)-4-oxobut-2-enoic acid] | relatively potent | tended to amplify memory cells | 
